Data reported in US20160177395A1, “BIOMARKERS FOR THE PREDICTION OF RENAL INJURY” (priority 2007, published 2016).
Several values for one entry are separate records, joined by “and”; a condition that tells them apart may be missing. Equal values may be shown once.

Test system: kidney tissues of treated or untreated rats
Assay: Real-time qRT-PCR of marker transcripts in kidney tissue panel, discovery stage (Table 22)
Assay type: in vivo, rat
Set-up: AI502869_DB71_seg0 normalized Real Time PCR expression: unit not given beside the values
Details: rat kidney, listed as CadCl
Protocol: Before RT preparation the RNA was treated with DNA-free (Ambion, cat. No. AM1906) DNase treatment and removal—according to manufacturer protocol. DNase procedure was repeated until no DNA is detected in a PCR reaction using the RNA samples.
The mixture is then incubated for 5 min at 65° C. and then quickly chilled on ice. Thereafter, 20 μl of 5× SuperscriptII first strand buffer (Invitrogen, Cat. No. Y00146), 9.6 μl 0.1M DTT (Invitrogen, Cat. No. Y00147) and 160 units RNasin (Promega, Cat. No. N251A) are added, and the mixture is incubated for 10 min at 25° C., followed by further incubation at 42° C. for 2 min. […] The resulting cDNA is diluted 1:20 in TE buffer (10 mM Tris pH=8, 1 mM EDTA pH=8).
cDNA (5 μl), prepared as described above, is used as a template in Real-Time PCR reactions using the SYBR Green I assay (PE Applied Biosystem) with specific primers in 100 nM concentration if not indicated otherwise and UNG Enzyme (Eurogentech or equal) Amplification is effected as follows: 50° C. for 2 min, 95° C. for 10 min, and then 40 cycles of 95° C. for 15 sec, followed by 60° C. for 1 min (if not indicated otherwise). Amplification step is followed by dissociation step. Detection is performed by using the PE Applied Biosystem SDS 7000. The cycle in which the reactions achieved a threshold level (Ct) of fluorescence is registered and is used to calculate the relative transcript quantity in the RT reactions. Non-detected samples are assigned Ct value of 41 and are calculated accordingly. The relative quantity is calculated using the equation Q=efficiencŷ-Ct. The efficiency of the PCR reaction is calculated from a standard curve, created by using serial dilutions of several reverse transcription (RT) reactions. To minimize inherent differences in the RT reaction, the resulting relative quantities are normalized to normalization factor calculated as follows: […]
The relative quantity (Q) of each housekeeping gene in each sample is calculated as described above. In order to calculate the “relative Q relative to MED” each Q for each HSKP gene is divided by the median quantity of this gene in all panel samples. To finally achieve the normalization factor of each sample the geometric mean of all four “relative Q relative to MED” was calculated. The normalization factor was then used for further calculations.
The markers of the present invention were tested with regard to their expression in a panel of kidney tissues samples from treated and control rats. Unless otherwise noted, all experimental data relates to the novel polynucleotides and proteins of the present invention, named according to the segment being tested (as expression was tested through RT-PCR as described). Tests were then performed as described in the “Materials and Experimental Procedures” section above.
The qRT-PCR measurements were normalized according to each samples normalization factor as described in “RT Preparation and Real-Time qRT-PCR Analysis” and further multiplied by a constant factor for ease of viewing.

[1] = day1, individual animals (F and M)
[2] = day5, individual animals (F and M)
[3] = day28, individual animals (F and M)

[Cl][Cd][Cl] [Cadmium chloride]
RNU24174_DB71_seg8 normalized Real Time PCR [1]: 0.3 and 0.29 and 0.49 and 0.2 and 0.4 and 0.22 | W41270_DB81_seg11 normalized Real Time PCR [1]: 1.44 and 1.78 and 1.48 and 0.5 and 0.62 and 0.43 | W64472_DB81_seg2 normalized Real Time PCR [1]: 1.07 (2×) and 1.1 and 0.55 and 1.45 and 0.41 | W83813_DB81_seg27 normalized Real Time PCR [1]: 2.07 and 2.19 and 1.66 and 0.47 and 0.51 and 0.65 | AA686189_DB71_seg6 normalized Real Time PCR expression (day1, individual animals): 0.38 (2×) and 0.52 and 0.36 and 0.59 and 0.64 | AA799594_DB71_seg0 normalized Real Time PCR expression (day1, individual animals): 1.25 and 1.43 and 1.27 and 1.09 and 1.15 and 1.05 | AA964541_DB71_seg0 normalized Real Time PCR expression (day1, individual animals): 0.41 and 0.55 and 0.3 and 0.28 and 0.6 and 0.56 | AI045075_DB71_seg6 normalized Real Time PCR expression (day1, individual animals): 0.6 and 0.54 and 0.5 and 0.66 and 0.87 and 0.84 | AI454051_DB71_seg0 normalized Real Time PCR expression (day1, individual animals): 1.47 and 1.46 and 1.08 and 1.48 and 2.13 and 0.77 | AI502869_DB71_seg0 normalized Real Time PCR expression (day1, individual animals): 0.54 and 1.37 and 0.56 and 1.14 and 2.59 and 0.86 | AW919147_DB71_seg0 normalized Real Time PCR expression (day1, individual animals): 1 (2×) and 1.21 and 0.76 and 1.1 and 1.02 | BI293562_DB71_seg2 normalized Real Time PCR expression (day1, individual animals): 0.36 and 0.4 and 0.61 and 0.5 and 0.51 and 0.39 | H31045_DB71_seg5 normalized Real Time PCR expression (day1, individual animals): 1.97 and 0.39 (2×) and 0.19 (2×) and 0.18 | H31799_DB71_seg23 normalized Real Time PCR expression (day1, individual animals): 1 (2×) and 1.24 and 0.91 and 0.9 and 1.15 | H31883_DB71_seg13 normalized Real Time PCR expression (day1, individual animals): 0.73 and 0.63 and 0.87 and 0.65 and 0.71 and 0.78 | H33998_DB71_seg19 normalized Real Time PCR [2]: 2 and 0.82 and 1.39 and 1.36 and 1.64 | MUSCYCG1R_DB81_seg15-17 normalized Real Time PCR [2]: 1.72 and 1.13 and 1.2 and 0.97 and 1.15 | RATLRFI_DB71_seg9 normalized Real Time PCR [2]: 0.35 and 0.31 and 0.17 and 0.18 and 0.29 | RATRAB13X_DB71_seg11-13 normalized Real Time PCR [2]: 0.95 and 0.9 and 0.75 (2×) and 0.62 | RNU24174_DB71_seg8 normalized Real Time PCR [2]: 0.33 and 0.27 and 0.12 (2×) and 0.13 | W41270_DB81_seg11 normalized Real Time PCR [2]: 2.49 and 1.17 and 1.02 and 1.43 and 1.52 | W64472_DB81_seg2 normalized Real Time PCR [2]: 1.65 and 0.78 and 2.23 and 1.89 and 1.63 | W83813_DB81_seg27 normalized Real Time PCR [2]: 3.79 and 1.59 and 1.48 and 1.67 and 1.76 | AA686189_DB71_seg6 normalized Real Time PCR expression (day5, individual animals): 0.47 and 0.29 and 0.39 and 0.5 and 0.38 | AA799594_DB71_seg0 normalized Real Time PCR expression (day5, individual animals): 1.12 and 0.9 and 1.23 and 0.98 and 1.01 | AA964541_DB71_seg0 normalized Real Time PCR expression (day5, individual animals): 0.29 and 0.27 and 0.42 (2×) and 0.41 | AI045075_DB71_seg6 normalized Real Time PCR expression (day5, individual animals): 0.98 and 0.49 and 0.85 and 0.81 and 0.83 | AI454051_DB71_seg0 normalized Real Time PCR expression (day5, individual animals): 1.54 and 1.35 and 0.84 and 0.68 and 0.92 | AI502869_DB71_seg0 normalized Real Time PCR expression (day5, individual animals): 0.94 and 0.73 and 0.69 and 0.68 and 0.85 | AW919147_DB71_seg0 normalized Real Time PCR expression (day5, individual animals): 1.06 and 1.86 and 1.3 and 0.94 and 1 | BI293562_DB71_seg2 normalized Real Time PCR expression (day5, individual animals): 0.43 and 0.63 and 0.48 and 0.88 and 0.78 | H31045_DB71_seg5 normalized Real Time PCR expression (day5, individual animals): 0.56 and 0.32 and 0.42 and 0.4 and 0.46 | H31799_DB71_seg23 normalized Real Time PCR expression (day5, individual animals): 0.83 and 0.99 and 1.17 and 0.98 and 0.94 | H31883_DB71_seg13 normalized Real Time PCR expression (day5, individual animals): 0.87 and 0.86 and 0.83 and 0.78 and 0.64 | H33998_DB71_seg19 normalized Real Time PCR [3]: 1.26 and 0.59 and 0.43 and 0.45 and 0.26 and 0.41 | MUSCYCG1R_DB81_seg15-17 normalized Real Time PCR [3]: 0.88 and 0.71 and 0.65 and 0.72 and 0.44 and 0.58 | RATLRFI_DB71_seg9 normalized Real Time PCR [3]: 0.66 and 0.85 and 1.78 and 0.28 and 0.67 and 0.56 | RATRAB13X_DB71_seg11-13 normalized Real Time PCR [3]: 1.37 and 0.92 and 0.96 and 1.11 and 1.08 and 0.88 | RNU24174_DB71_seg8 normalized Real Time PCR [3]: 0.21 and 0.45 and 1.21 and 0.25 (2×) and 0.39 | W41270_DB81_seg11 normalized Real Time PCR [3]: 0.86 and 0.55 and 0.83 and 0.33 and 0.27 and 0.39 | W64472_DB81_seg2 normalized Real Time PCR [3]: 0.89 and 0.55 and 0.43 and 0.67 and 0.47 and 0.57 | W83813_DB81_seg27 normalized Real Time PCR [3]: 0.95 and 0.64 and 0.46 (2×) and 0.34 and 0.53 | AA686189_DB71_seg6 normalized Real Time PCR expression (day28, individual animals): 0.64 and 0.58 and 1.94 and 0.4 and 0.51 and 0.82 | AA799594_DB71_seg0 normalized Real Time PCR expression (day28, individual animals): 1.14 and 0.88 and 0.37 and 0.66 and 0.77 and 0.83 | AA964541_DB71_seg0 normalized Real Time PCR expression (day28, individual animals): 0.32 (2×) and 0.42 and 1.72 and 0.55 and 0.72 | AI045075_DB71_seg6 normalized Real Time PCR expression (day28, individual animals): 1.72 and 1.15 and 0.86 and 0.75 and 0.63 and 0.71 | AI454051_DB71_seg0 normalized Real Time PCR expression (day28, individual animals): 0.79 and 1.05 and 0.54 and 1.29 and 1.31 and 0.75 | AI502869_DB71_seg0 normalized Real Time PCR expression (day28, individual animals): 0.73 and 1.22 and 0.44 and 2.47 and 2.93 and 1.18 | AW919147_DB71_seg0 normalized Real Time PCR expression (day28, individual animals): 0.77 and 0.91 and 0.42 and 1.31 and 1.18 and 0.68 | BI293562_DB71_seg2 normalized Real Time PCR expression (day28, individual animals): 0.4 and 0.81 and 2.59 and 0.72 and 1.35 and 0.31 | H31045_DB71_seg5 normalized Real Time PCR expression (day28, individual animals): 2.88 and 0.83 and 0.57 and 2.23 and 2.41 and 2 | H31799_DB71_seg23 normalized Real Time PCR expression (day28, individual animals): 1.59 and 0.94 and 0.67 and 1.05 and 1.02 and 0.76 | H31883_DB71_seg13 normalized Real Time PCR expression (day28, individual animals): 0.97 and 1.02 and 0.86 (2×) and 0.95 and 0.8
